Test results from patent US10662183B2, “Inhibitors of myocardin-related transcription factor and serum response factor (MRTF/SRF)-mediated gene transcription and methods for use of the same” (THE REGENTS OF THE UNIVERSITY OF MICHIGAN, priority 2014, dated 2020).

These compounds were tested on SRE.L-firefly luciferase reporter (Rho/MKL1 pathway) in PC-3 prostate cancer cells (assay: SRE.L-luciferase reporter assay). Conditions: 19 h, PC-3 cells transfected with Gα12Q231L, SRE.L and pRL-TK reporters; compound 19 hrs.
Assay type: cell-based
How it was run: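 PC-3 cells co-transfected with Gα12Q231L (2 ng), SRE.L-firefly (50 ng) and pRL-TK Renilla (7 ng) reporters, then treated with 0–100 μM compound for 19 h at 37° C. in 0.5% FBS DMEM. Dual-luciferase luminescence expressed as % inhibition vs DMSO; WST-1 viability at 450 nm; n=3 in triplicate.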

Compound	IC50 [µM]
O=C(Nc1ccc(Cl)cc1)C1CN(C(=O)c2cccc(-c3ccccn3)c2)CC(F)(F)C1 (centres unmarked) [Example E-096, N-(4-chlorophenyl)-5,5-difluoro-1-(3-(pyridin-2-yl)benzoyl)piperidine-3-carboxamide]	1.1
O=C(Nc1c(F)cccc1F)C1CCCN(C(=O)c2cccc(-c3ccco3)c2)C1 (centres unmarked) [Example E-097, N-(2,6-difluorophenyl)-1-(3-(furan-2-yl)benzoyl)piperidine-3-carboxamide]	32
O=C(Nc1ccc(Cl)cc1)C1CN(C(=O)c2cccc(-c3ncc[nH]3)c2)CC(F)(F)C1 (centres unmarked) [Example E-098, 1-(3-(1H-imidazol-2-yl)benzoyl)-N-(4-chlorophenyl)-5,5-difluoropiperidine-3-carboxamide]	10
O=C(Nc1ccc(Cl)cc1)C1CN(C(=O)c2cccc(-c3cncnc3)c2)CC(F)(F)C1 (centres unmarked) [Example E-099, N-(4-chlorophenyl)-5,5-difluoro-1-(3-(pyrimidin-5-yl)benzoyl)piperidine-3-carboxamide]	3.3
O=C(Nc1ccc(Cl)cc1)C1CN(C(=O)c2cccc(-c3cccnc3)c2)CC(F)(F)C1 (centres unmarked) [Example E-100, N-(4-chlorophenyl)-5,5-difluoro-1-(3-(pyridin-3-yl)benzoyl)piperidine-3-carboxamide]	0.91
O=C(Nc1ccccc1Cl)C1CCCN(C(=O)c2cccc(-c3ccco3)c2)C1 (centres unmarked) [Example E-101, N-(2-chlorophenyl)-1-(3-(furan-2-yl)benzoyl)piperidine-3-carboxamide]	5.6
N#Cc1ccc(NC(=O)C2CCCN(C(=O)c3cccc(-c4ccco4)c3)C2)cc1 (centres unmarked) [Example E-104, N-(4-cyanophenyl)-1-(3-(furan-2-yl)benzoyl)piperidine-3-carboxamide]	2.9
O=C(Nc1ccc(F)cc1)C1CCCN(C(=O)c2cccc(-c3ccco3)c2)C1 (centres unmarked) [Example E-105, N-(4-fluorophenyl)-1-(3-(furan-2-yl)benzoyl)piperidine-3-carboxamide]	13
O=C(Nc1ccc(Cl)cc1)C1CN(C(=O)c2cccc(-c3cn[nH]c3)c2)CC(F)(F)C1 (centres unmarked) [Example E-106, 1-(3-(1H-pyrazol-4-yl)benzoyl)-N-(4-chlorophenyl)-5,5-difluoropiperidine-3-carboxamide]	15
O=C(Nc1ccc(Cl)cc1)C1CCN(C(=O)c2cccc(-c3ccco3)c2)C1 (centres unmarked) [Example E-107, N-(4-chlorophenyl)-1-(3-(furan-2-yl)benzoyl)pyrrolidine-3-carboxamide]	14
O=C(Nc1ccc(Cl)cc1)C1CCCN(C(=O)c2ccc(-n3cccc3)cc2)C1 (centres unmarked) [Example E-109, 1-(4-(1H-pyrrol-1-yl)benzoyl)-N-(4-chlorophenyl)piperidine-3-carboxamide]	6.3
O=C(Nc1ccc(Cl)cc1)C1CCCN(Cc2ccc(-n3cccc3)cc2)C1 (centres unmarked) [Example E-110, 1-(4-(1H-pyrrol-1-yl)benzyl)-N-(4-chlorophenyl)piperidine-3-carboxamide]	2.9
Cc1ccc(NC(=O)C2CCCN(C(=O)c3cccc(-c4ccco4)c3)C2)cc1 (centres unmarked) [Example E-111, 1-(3-(furan-2-yl)benzoyl)-N-(p-tolyl)piperidine-3-carboxamide]	15
O=C(NCc1ccc(Cl)cc1)C1CCCN(C(=O)c2cccc(-c3ccco3)c2)C1 (centres unmarked) [Example E-112, N-(4-chlorobenzyl)-1-(3-(furan-2-yl)benzoyl)piperidine-3-carboxamide]	21
CCNc1ccc(CN2CCCC(C(=O)Nc3ccc(Cl)cc3)C2)cc1 (centres unmarked) [Example E-113, N-(4-chlorophenyl)-1-(4-(ethylamino)benzyl)piperidine-3-carboxamide]	8
O=C(Nc1ccc(Cl)cc1)C1CCCN(Cc2ccc(-n3cccn3)cc2)C1 (centres unmarked) [Example E-114, 1-(4-(1H-pyrazol-1-yl)benzyl)-N-(4-chlorophenyl)piperidine-3-carboxamide]	1.6
O=C(Nc1ccc(Cl)cc1)C1CCCN(C(=O)c2cccc(-n3ccnc3)c2)C1 (centres unmarked) [Example E-115, 1-(3-(1H-imidazol-1-yl)benzoyl)-N-(4-chlorophenyl)piperidine-3-carboxamide]	5.2
